According to patent US11919918B2, “P2X3 andor P2X2/3 receptor antagonist, pharmaceutical composition comprising same, and use thereof” (BEIJING TIDE PHARMACEUTICAL CO., LTD., priority 2017, dated 2024):
pIC50: −log10 of the molar value.

Tests used:
human P2X3 receptor = human P2X3 receptor (Homo sapiens (Human), UniProt P56373); assay: Inhibitory activity on human P2X3 receptor (calcium 6 dye FLIPR assay, agonist α,β-MeATP); format: cell-based; settings: HEK293-P2X3 stably expressing cell line, FLIPR Tetra
Sequence of human P2X3 receptor (P56373 whole entry): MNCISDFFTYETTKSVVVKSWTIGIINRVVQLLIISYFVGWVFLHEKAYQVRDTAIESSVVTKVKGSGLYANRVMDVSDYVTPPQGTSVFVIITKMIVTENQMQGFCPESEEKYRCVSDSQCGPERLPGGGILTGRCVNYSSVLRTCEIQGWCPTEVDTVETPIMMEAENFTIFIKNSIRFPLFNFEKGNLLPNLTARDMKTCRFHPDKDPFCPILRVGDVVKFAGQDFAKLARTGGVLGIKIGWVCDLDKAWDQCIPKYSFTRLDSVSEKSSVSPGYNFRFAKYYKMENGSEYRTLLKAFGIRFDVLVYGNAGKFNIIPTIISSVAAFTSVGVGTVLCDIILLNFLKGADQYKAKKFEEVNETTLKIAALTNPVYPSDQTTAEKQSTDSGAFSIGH
Experimental: (§1) Biological Assay: Determination of the Inhibitory Activity of the Compounds on Human P2X3 and P2X2/3 Receptors
(§2) Cells were seeded into a poly-D-lysine-coated 384-well cell culture plate (Corning) at a density of 11,000 cells/well/25 μL of cell inoculation medium, and were cultured in a cell incubator overnight. On the day of the test, the calcium 6 dye was diluted to a 2× concentration with a assay buffer, 25 μL of the 2× calcium 6 dye was added to the 384-well cell culture plate, which was incubated at 37° C. for 2 hours, and then placed at room temperature for further use. The test compound and the agonist, α,β-MeATP were diluted to a 7× concentration with the assay buffer, 10 μL of the 7× test compound was added to the 384-well cell culture plate, which was incubated at room temperature for 15 minutes, and 10 μL of the 7× α,β-MeATP was transferred into the 384-well cell culture plate. The data were measured and analyzed using FLIPR Tetra, and the half inhibitory concentration (IC50) of the test compound on P2X3 and P2X2/3 receptors was calculated with the GraphPad Prism four-parameter equation.
(§3) Cell lines: human embryonic kidney cells HEK293-P2X3 and HEK293-P2X2/3 stably expressing cell lines;
(§4) Complete cell culture medium: DMEM High Glucose (Life Technology), which contained 10% fetal bovine serum, 4 mM GlutaMAX, 1% penicillin-streptomycin, and 350 μg/mL G418;
(§5) Cell inoculation medium: DMEM High Glucose (Life Technology), which contained 2% fetal bovine serum, and 4 mM GlutaMAX;
(§6) Cell culture conditions: 37° C., 5% CO2;
(§7) Assay buffer: HBSS (containing calcium and magnesium ions), which contained 20 mM HEPES;
(§8) Detection equipment: FLIPR Tetra (Molecular Devices);

human P2X2/3 receptor = human P2X2/3 receptor (Homo sapiens (Human), UniProt P56373+Q9UBL9); assay: Inhibitory activity on human P2X2/3 receptor (calcium 6 dye FLIPR assay, agonist α,β-MeATP); format: cell-based; settings: HEK293-P2X2/3 stably expressing cell line, FLIPR Tetra
Sequence of human P2X2/3 receptor (Q9UBL9 whole entry): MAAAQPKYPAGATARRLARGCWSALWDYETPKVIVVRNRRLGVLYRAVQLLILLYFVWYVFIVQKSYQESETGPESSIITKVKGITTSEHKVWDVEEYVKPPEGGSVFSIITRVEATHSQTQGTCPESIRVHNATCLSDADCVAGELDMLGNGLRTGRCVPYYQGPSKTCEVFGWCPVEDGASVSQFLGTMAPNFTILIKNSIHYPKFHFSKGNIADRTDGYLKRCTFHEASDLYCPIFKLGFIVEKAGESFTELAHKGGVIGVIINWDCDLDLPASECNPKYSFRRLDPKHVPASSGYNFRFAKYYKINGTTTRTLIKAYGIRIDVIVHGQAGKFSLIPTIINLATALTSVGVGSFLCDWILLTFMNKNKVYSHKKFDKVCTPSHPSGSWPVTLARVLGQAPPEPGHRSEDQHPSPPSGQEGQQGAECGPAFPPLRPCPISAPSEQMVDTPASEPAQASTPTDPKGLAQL
Sequence of human P2X2/3 receptor (P56373 whole entry): as the sequence (P56373 whole entry) above
Experimental: as §1, §2, §3, §4, §5, §6, §7, §8

Row | pIC50 (human P2X3 receptor) | pIC50 (human P2X2/3 receptor) | SMILES
1 | 6.69 | 6.47 | CC(C)c1cnc(Cl)cc1Oc1cnc(N)nc1N [Compound C3, 5-((2-chloro-5-isopropylpyridin-4-yl)oxy)pyrimidine-2,4-diamine]
2 | 6.99 | 6.80 | COc1cc(Oc2cnc(N)nc2N)c(C(C)C)cn1 [Compound C4, 5-((5-isopropyl-2-methoxypyridin-4-yl)oxy)pyrimidine-2,4-diamine]
3 | 6.46 | – | CC(C)c1cnc(S(N)(=O)=O)cc1Oc1cnc(N)nc1N [Compound C6, 4-((2,4-diaminopyrimidin-5-yl)oxy)-5-isopropylpyridine-2-sulfonamide]
4 | 7.13 | 7.25 | CC(C)c1cnc(I)cc1Oc1cnc(N)nc1N [Compound C12, 5-((2-iodo-5-isopropylpyridin-4-yl)oxy)pyrimidine-2,4-diamine]
5 | 6.45 | 6.22 | CC(C)c1cnc(-c2ccccc2)cc1Oc1cnc(N)nc1N [Compound C13]
6 | 6.51 | 6.10 | CCc1cc(Oc2cnc(N)nc2N)c(C(C)C)cn1 [Compound C15, 5-((2-ethyl-5-isopropylpyridin-4-yl)oxy)pyrimidine-2,4-diamine]
7 | 6.10 | – | CC(C)c1cc(Oc2cnc(N)nc2N)c(C(C)C)cn1 [Compound C16, 5-((2,5-diisopropylpyridin-4-yl)oxy)pyrimidine-2,4-diamine]
8 | 7.35 | 7.12 | CSc1cc(Oc2cnc(N)nc2N)c(C(C)C)cn1 [Compound C20, 5-((5-isopropyl-2-(methylthio)pyridin-4-yl)oxy)pyrimidine-2,4-diamine]
9 | 6.88 | 6.70 | CC(C)c1cnc(N)cc1Oc1cnc(N)nc1N [Compound C21, 5-((2-amino-5-isopropylpyridin-4-yl)oxy)pyrimidine-2,4-diamine]
10 | 7.43 | 7.24 | CNc1cc(Oc2cnc(N)nc2N)c(C(C)C)cn1 [Compound C22, 5-((5-isopropyl-2-(methylamino)pyridin-4-yl)oxy)pyrimidine-2,4-diamine]
11 | 6.44 | 6.19 | CC(C)c1cnc(N(C)C)cc1Oc1cnc(N)nc1N [Compound C23, 5-((2-(dimethylamino)-5-isopropylpyridin-4-yl)oxy)pyrimidine-2,4-diamine]
12 | 5.93 | – | CC(C)c1cnc(-c2cn[nH]c2)cc1Oc1cnc(N)nc1N [Compound C35, 5-((5-isopropyl-2-(1H-pyrazol-4-yl)pyridin-4-yl)oxy)pyrimidine-2,4-diamine]
13 | 6.10 | – | CC(C)c1cnc(-n2cccc2)cc1Oc1cnc(N)nc1N [Compound C38, 5-((5-isopropyl-2-(1H-pyrrol-1-yl)pyridin-4-yl)oxy)pyrimidine-2,4-diamine]
14 | 6.78 | 6.61 | CC(C)c1cnc(-c2ccco2)cc1Oc1cnc(N)nc1N [Compound C39, 5-((2-(furan-2-yl)-5-isopropylpyridin-4-yl)oxy)pyrimidine-2,4-diamine]
15 | 7.26 | 6.74 | C=Cc1cc(Oc2cnc(N)nc2N)c(C(C)C)cn1 [Compound C43]
16 | 6.94 | 6.37 | C=C(C)c1cc(Oc2cnc(N)nc2N)c(C(C)C)cn1 [Compound C44]
17 | 6.83 | 6.23 | CC(C)c1cnc(C2CC2)cc1Oc1cnc(N)nc1N [Compound C52, 5-((2-cyclopropyl-5-isopropylpyridin-4-yl)oxy)pyrimidine-2,4-diamine]
18 | 6.56 | 6.23 | CCN(C)c1cc(Oc2cnc(N)nc2N)c(C(C)C)cn1 [Compound C61, 5-((2-(ethyl(methyl)amino)-5-isopropylpyridin-4-yl)oxy)pyrimidine-2,4-diamine]
19 | 6.48 | 6.30 | CC(C)c1cnc(N(C)C2CC2)cc1Oc1cnc(N)nc1N [Compound C65, 5-((2-(cyclopropyl (methyl)amino)-5-isopropylpyridin-4-yl)oxy) pyrimidine-2,4-diamine]
20 | 7.07 | 6.81 | C#Cc1cc(Oc2cnc(N)nc2N)c(C(C)C)cn1 [Compound C66, 5-((2-ethynyl-5-isopropylpyridin-4-yl)oxy)pyrimidine-2,4-diamine]
21 | 6.31 | – | CC(C)c1cnc(C(F)(F)F)cc1Oc1cnc(N)nc1N [Compound C67, 5-((5-isopropyl-2-(trifluoromethyl)pyridin-4-yl)oxy)pyrimidine-2,4-diamine]
22 | 6.31 | – | CC(C)Nc1cc(Oc2cnc(N)nc2N)c(C(C)C)cn1 [Compound C120, 5-((5-isopropyl-2-(isopropylamino)pyridin-4-yl)oxy)pyrimidine-2,4-diamine]
23 | 6.42 | – | CC(C)c1cnc(C(N)=O)cc1Oc1cnc(N)nc1N [Compound C129, 4-((2,4-diamino-pyrimidin-5-yl)oxy)-5-isopropyl-picolinamide]
24 | 6.20 | – | CC(C)c1cnc(/C=C/c2ccccc2)cc1Oc1cnc(N)nc1N [Compound C138, (E)-5-((5-isopropyl-2-styrylpyridin-4-yl)oxy) pyrimidine-2,4-diamine]
25 | 6.03 | – | CC(C)c1cnc(CC(=O)c2ccc(N(C)C)cc2)cc1Oc1cnc(N)nc1N [Compound C155]
26 | 6.50 | – | CC(C)c1cnc(C#Cc2cnc3cccnn23)cc1Oc1cnc(N)nc1N [Compound C195, 5-((2-(imidazo[1,2-b]pyridazin-3-ylethynyl)-5-isopropylpyridin-4-yl)oxy)pyrimidine-2,4-diamine]

Continued, compound first:

Row | SMILES | pIC50 (human P2X3 receptor) | pIC50 (human P2X2/3 receptor)
27 | CC(C)c1c[n+]([O-])c(Br)cc1Oc1cnc(N)nc1N [C1] | 6.13 | –
28 | CC(C)c1cnc(Cl)cc1Sc1cnc(N)nc1N [C84] | 6.27 | 6.13
29 | C=C(C)c1cnc(NC)cc1Oc1cnc(N)nc1N [C192] | 7.28 | 7.16
30 | CNc1ncc(Oc2cc(Br)ncc2C(C)C)c(NC)n1 [C227] | 6.02 | –
31 | COc1cc(Oc2cnc(N)nc2N)c(C2CC2)cn1 [Compound C33, 5-((5-cyclopropyl-2-methoxypyridin-4-yl)oxy) pyrimidine-2,4-diamine] | 6.62 | 6.58
32 | C=C(OCC)c1cc(Oc2cnc(N)nc2N)c(C(C)C)cn1 [Compound C45, 5-((2-(1-ethoxyvinyl)-5-isopropylpyridin-4-yl)oxy)pyrimidine-2,4-diamine] | 6.36 | –
33 | CC(C)c1cnc(Br)cc1Oc1cnc(N)nc1NCCN(C)C [Compound C71, 5-((2-bromo-5-isopropylpyridin-4-yl)oxy)-N^4-(2-(dimethylamino)ethyl)pyrimidine-2,4-diamine] | 7.14 | 7.17
34 | CSc1cc(Oc2cnc(N)nc2NCCN(C)C)c(C(C)C)cn1 [Compound C72, N^4-(2-(dimethylamino)ethyl)-5-((5-isopropyl-2-(methylthio)pyridin-4-yl)oxy)pyrimidine-2,4-diamine] | 6.90 | 7.05
35 | CC(C)c1cnc(Br)cc1Sc1cnc(N)nc1N [Compound C85, 5-((2-bromo-5-isopropylpyridin-4-yl)thio)pyrimidine-2,4-diamine] | 7.11 | 6.69
36 | C#Cc1cc(Sc2cnc(N)nc2N)c(C(C)C)cn1 [Compound C88, 5-((2-ethynyl-5-isopropyl-pyrdin-4-yl)thio) pyrimidine-2,4-diamine] | 6.88 | 6.91
37 | CSc1cc(Sc2cnc(N)nc2N)c(C(C)C)cn1 [Compound C91, 5-((5-isopropyl2-(methylthio)pyridin-4-yl)thio) pyrimidine-2,4-diamine] | 6.64 | 6.57
38 | Cc1cc(Sc2cnc(N)nc2N)c(C(C)C)cn1 [Compound C92, 5-((5-isopropyl-2-methylpyridin-4-yl)thio) pyrimidine-2,4-diamine] | 6.96 | 6.65
39 | C=Cc1cc(Sc2cnc(N)nc2N)c(C(C)C)cn1 [Compound C95, 5-((5-isopropyl-2-vinylpyridine-4-yl)thio)pyrimidine-2,4-diamine] | 6.86 | 6.79
40 | COc1cc(Oc2cnc(N)nc2N)c(Br)cn1 [Compound C124, 5-((5-bromo-2-methoxypyridin-4-yl)oxy)pyrimidine-2,4-diamine] | 5.91 | –
41 | CCSc1cc(Sc2cnc(N)nc2N)c(C(C)C)cn1 [Compound C125, 5-((2-(ethylthio)-5-isopropyl-pyridin-4-yl)thio) pyrimidine-2,4-diamine] | 6.14 | –
42 | CC(C)c1cnc(Br)cc1Oc1cnc(N)nc1N[C@H](C)C1CC1 [Compound C182, (R)-5-((2-bromo-5-isopropylpyridin-4-yl)oxy)-N^4-(1-cyclopro-pylethyl) pyrimidine-2,4-diamine] | 6.17 | –
43 | CC(C)c1cnc(NCCO)cc1Oc1cnc(NCCO)nc1N [Compound C242, 2-((4-((4-amino-2-((2-hydroxyethyl)amino)pyrimidin-5-yl)oxy)-5-isopropyl-pyridin-2-yl)amino)ethanol] | 6.13 | –
